Assay results reported in patent US10426757B2, “Compositions and methods for promoting intestinal stem cell and/or non-stem progenitor cell function” (Whitehead Institute for Biomedical Research, priority 2014, dated 2019).
Entries after “also recorded” stand apart in the source; their conditions may differ.

Experiments:
[1] = tested on: Lgr5-GFP^hi ISCs and Lgr5-GFP^low progenitors; assay: Flow cytometry enumeration of Lgr5-GFP^hi ISCs and Lgr5-GFP^low progenitors in Lgr5-EGFP-IRES-CreERT2 mice; type: in vivo, mouse; conditions: GW501516 4 mg/kg daily IP, 2-4 weeks, vs vehicle
Text: Mice were housed in the Unit for Laboratory Animal Medicine at the Whitehead Institute for Biomedical Research and Koch Institute for Integrative Cancer Research. Lgr5-EGFP-IRES-CreERT2 mice (strain name: B6.129P2-Lgr5^tm1(cre/ERT2)Cle/J, stock number 008875), and Rosa26-lacZ mice (strain name: B6.129S4-Gt(ROSA)26Sor^tm1Sor/J, stock number 003474) were obtained from the Jackson Laboratory. […] Control mice were age-matched and fed normal chow ad libitum. GW501516 (Enzo) was reconstituted in DMSO at 4.5 mg ml^−1 and diluted 1:10 in a solution of 5% PEG400 (Hampton Research), 5% Tween80 (Sigma), 90% H2O for a daily intraperitoneal injection of 4 mg/kg.
As previously reported and briefly summarized here, small intestines were removed, washed with cold PBS−/−, opened laterally and cut into 3-5 mm fragments. Pieces were washed multiple times with cold PBS−/− until clean, washed 2-3 with PBS−/−/EDTA (10 mM), and incubated on ice for 90-120 minutes while mixing at 30-minute intervals. Crypts were then mechanically separated from the connective tissue by shaking, and filtered through a 70-μm mesh into a 50-ml conical tube to remove villous material and tissue fragments. At this point the suspension was mainly composed of crypts. […] For ISC isolation, the crypt suspensions were dissociated to individual cells with TrypLE Express (Invitrogen). Cell labeling consisted of an antibody cocktail comprising CD45-PE (eBioscience, 30-F1 1), CD31-PE (Biolegend, Mecl3.3), Ter119-PE (Biolegend, Ter119), CD24-Pacific Blue (Biolegend, M1/69), CD117-APC/Cy7 (Biolegend, 2BS), and EPCAM-APC (eBioscience, G8.8). ISCs were isolated as Lgr5-EGFP^hiEpcam^+CD24^low/−CD31^−Ter119 CD45^−7-AAD^−. EGFP^low progenitors were isolated as EGFP^lowEpcam^+CD24^low/−CD31^−Ter119^−CD45^−7-AAD^−, and Paneth cells were isolated as CD24^hiSidescatter^hiLgr5-EGFP^−Epcam^+CD31^−Ter119^−CD45^−7-AAD^− with a BD FACS Aria II SORP cell sorter into supplemented crypt culture medium for culture. Dead cells were excluded from the analysis with the viability dye 7-AAD (Life Technologies).

[2] = tested on: Lgr5-GFP^hi ISCs; assay: Organoid formation by sorted Lgr5-GFP^hi ISCs with or without Paneth cells; type: cell-based, mouse; conditions: ISCs from GW501516-treated mice, no Paneth cells, vs vehicle; listed as GW501515
Protocol: (§1) Isolated ISCs or progenitor cells were centrifuged for 5 minutes at 250 g, re-suspended in the appropriate volume of crypt culture medium (500-1,000 cells μl^−1), then seeded onto 25-30 μl Matrigel™ (Corning 356231 growth factor reduced) containing 1 μM jagged (Ana-Spec) in a flat bottom 48-well plate (Corning 3548). Alternatively, ISCs and Paneth cells were mixed after sorting in a 1:1 ratio, centrifuged, and then seeded onto Matrigel™. The Matrigel™ and cells were allowed to solidify before adding 300 μl of crypt culture medium. The crypt media was changed every second or third day. Organoid bodies were quantified on days 3, 7 and 10 of culture, unless otherwise specified. With respect to the study results presented in FIGS. 14-16, organoid bodies were quantified on day 3-4. In secondary experiments, individual primary organoids were mechanically dissociated and re-plated, or organoids were dissociated for 10 minutes in TrypLE Express at 32° C., re-suspended with SMEM (Life Technologies), centrifuged and re-suspended in cold SMEM with viability dye 7-AAD. Live cells were sorted and seeded onto Matrigel™ as previously described.

[3] = tested on: small intestinal crypts; assay: Crypt organoid-forming (clonogenicity) assay in 3-D culture; type: cell-based, mouse; conditions: crypts from GW501516-treated mice vs vehicle
[4] = tested on: Olfm4+ ISCs and Cryptdin 4+ Paneth cells; assay: In situ hybridization for Olfm4 and Cryptdin 4, proximal jejunum; type: in vivo, mouse; conditions: GW501516-treated mice vs vehicle
Text: The in situ hybridization probes used in this study correspond to expressed sequence tags or fully sequenced cDNAs obtained from Open Biosystems. The accession numbers (IMAGE mouse cDNA clone in parenthesis) for these probes are as follows: mouse Olfm4 BC141127 (9055739), mouse Cryptdin 4 BC134360 (40134597). Both sense and antisense probes were generated to ensure specificity by in vitro transcription using DIG RNA labelling mix (Roche) according to the manufacturer's instructions and to previously published detailed methods.^24,44

[5] = tested on: β-catenin target genes; assay: Single cell qPCR of β-catenin target genes; type: in vivo, mouse; conditions: ISCs and progenitors from GW501516-treated mice
Protocol: For one-tube single-cell sequence-specific pre-amplification, individual primer sets of β-catenin target genes (total of 96) were pooled to 0.1 mM final concentration for each primer. Single cells were directly sorted into 96 well plates containing 5 ul RT-PCR master mix (2.5 ul CellsDirect reaction mix, Invitrogen; 0.5 ul primer pool; 0.1 ul RT/Taq enzyme, Invitrogen; 1.9 ul nuclease free water) in each well. Immediately after, plates were placed on PCR machine for pre-amplification. Sequence specific pre-amplification PCR protocol was as following: 1) 60 minutes at 50° C. for cell lyses and sequence specific reverse transcription, 2) 3 minutes at 95° C. for reverse transcriptase inactivation and Taq polymerase activation. Then, cDNA was amplified by 20 cycles of 15 seconds at 95° C. for initial denaturation, […] at 60° C. for annealing and elongation. After pre-amplification, samples were diluted 1:5 prior to high throughput microfluidic real time PCR analysis using Fluidgm platform. […] Threshold crossing (Ct) values were calculated using the BioMark Real-Time PCR Analysis software (Fluidgm). […] Fold-changes were calculated as the difference of median of log2 expression levels for the two cell populations. […]

[6] = tested on: Apc-null Lgr5-GFP^hi ISCs and Lgr5-GFP^low progenitors; assay: In vitro adenomatous organoid formation by Apc-null ISCs and progenitors; type: cell-based, mouse
Text: To test this possibility, the present inventors generated Apc^loxp/loxp; Lgr5-EGFP-IRES-CreERT2 mice to assess whether pharmacological PPAR-δ activation modifies the tumorigenic capacity of the Lgr5-GFP^low progenitors. Injection with tamoxifen leads to Apc-loss in the Lgr5-GFP^hi ISCs, which in turn generate Apc-null Lgr5-GFP^low progenitors. Four days after tamoxifen administration, we flow sorted Apc-null Lgr5-GFP^hi ISCs and Lgr5-GFP^low progenitors from vehicle and PPAR-δ agonist treated mice to assess the tumor-forming potential of these populations using separate assays (FIG. 7B): first, we examined their ability to give rise to adenomatous organoids in culture; and second, we interrogated the ability of 10,000 freshly sorted stem and progenitor cells to initiate adenomatous lesions in syngeneic recipient colons.
as §1

[7] = tested on: aged crypts; assay: Stem cell frequency and organoid formation in aged mice; type: in vivo, mouse
Protocol: as §1, with “described. With respect to the study results presented in FIGS. 14-16, young mice were 2-4 months old. Old mice range from 18-25 months of age. The mice were on a standard chow diet. Mice received a single daily injection with the indicated amount of GW501516 or vehicle in the afternoon. Intestines were harvested the following morning.” for “described.”

Cc1cc(SCc2sc(-c3ccc(C(F)(F)F)cc3)nc2C)ccc1OCC(=O)O [GW501516, 2-[2-methyl-4-[[4-methyl-2-[4-(trifluoromethyl)phenyl]-1,3-thiazol-5-yl]methylsulfanyl]phenoxy]acetic acid]
number of Lgr5-GFP^low progenitors ([1]; 4 mg/kg): not in progenitor cells; also recorded: no effect | number/frequency of Lgr5-GFP^hi ISCs ([1]; 4 mg/kg): augmented; also recorded: selective increase; also recorded: doubled the number | number/frequency of Lgr5-GFP^hi ISCs ([1]; listed as GW501515): sufficient to enhance | Paneth cell-independent organoid-initiating capacity of Lgr5-GFP^hi ISCs [2]: sufficient to enhance | organoid-forming capacity of intestinal crypts [3]: more organoids; also recorded: boosted the organoid-forming capacity | Cryptdin 4+ Paneth cell numbers [4]: no impact; also recorded: remained unchanged | Olfm4+ ISC numbers per jejunal crypt [4]: augmented; also recorded: increased | transcription of β-catenin target genes (Bmp4, Jag1, Jag2, Edn3) [5]: induction | in vitro adenoma-initiating potential of Apc-null Lgr5-GFP^low progenitors ([6]; GW501516-treated mice, EN media, vehicle 0.04±0.05): 0.18±0.07 | in vitro adenomatous organoid-forming potential of Apc-null Lgr5-GFP^hi ISCs ([6]; GW501516-treated vs vehicle): not altered | increase of in vitro adenomatous organoid forming potential of Apc-null Lgr5-GFP^low progenitors ([6]; GW501516-treated vs vehicle, EN media): four-fold | in vitro adenomatous organoid-forming potential of Apc-null Lgr5-GFP^hi ISCs ([6]; GW501516-treated vs vehicle, listed as PPAR-δ agonist): as clonogenic as those from vehicle controls | organoid formation of co-cultured ISCs and Paneth cells from aged animals ([7]; GW501516 vs old vehicle, day 3): significantly boosts organoid formation | frequency of organoid formation in aged crypts ([7]; aged mice, GW501516 treatment): increases the frequency of organoid formation | frequency of stem cells ([7]; aged mice, GW501516 treatment): increases the frequency of stem cells
